Our source for the blood bilirubin increases values is US10905692B2, “Combination therapy for treating malignancies” (Agios Pharmaceuticals, Inc., priority 2015, dated 2021).

This series is described as follows: blood bilirubin in subjects with a UGT1A1 mutation receiving COMPOUND 1. The class given is in vivo, human. An excerpt:
All toxicity ≥Grade 3 not due to underlying AML or complications of the disease or myelosuppressive treatment, with the exception of ≥Grade 3 blood bilirubin increases in subjects with a UGT1A1 mutation receiving COMPOUND 1.

Regarding `CC(C)(O)CNc1nc(Nc2ccnc(C(F)(F)F)c2)nc(-c2cccc(C(F)(F)F)n2)n1` [COMPOUND 1, 2-methyl-1-[(4-[6-(trifluoromethyl)pyridin-2-yl]-6-{[2-(trifluoromethyl)pyridin-4-yl]amino}-1,3,5-triazin-2-yl)amino]propan-2-ol], the blood bilirubin increases entry is listed as “isolated blood bilirubin increases have been seen”.
